In patent publication US12384769B2, “Heteroaryl-substituted aminoalkyl azole compounds as pesticides” (Elanco Animal Health GmbH, priority 2019, dated 2025):

Key:
Assay type in all cases: in vivo
Diabrotica balteata = Diabrotica balteata spray test; conditions: 168 h, wheat seeds, after 7 days, read-out: activity (efficacy, seedlings grown); for pest or weed control at 160 µg/disc, 500 g/ha: 500 g/ha (=160 μg/well)
Method: Diabrotica balteata—Spray Test
Solvent: 78.0 parts by weight of acetone • • 1.5 parts by weight of dimethylformamide
(§1) Emulsifier: alkylarylpolyglycol ether
(§2) To produce a suitable preparation of active compound, 1 part by weight of active compound is mixed with the stated amount of solvent, and the concentrate is diluted with water, containing an emulsifier concentration of 1000 ppm, to the desired concentration. Further test concentrations are prepared by dilution with emulsifier containing water.
Soaked wheat seeds (Triticum aestivum) are placed in a multiple well plate filled with agar and some water and are incubated for 1 day to germinate (5 seeds per well). The germinated wheat seeds are sprayed with a test solution containing the desired concentration of the active ingredient. Afterwards each unit is infected with 10-20 larvae of the banded cucumber beetle (Diabrotica balteata).
After 7 days efficacy in % is determined. 100% means all the seedlings have grown up like in the untreated, uninfected control; 0% means none of the seedlings have grown.

Ctenocephalides felis = Ctenocephalides felis oral test (CTECFE); conditions: 48 h, 100 ppm in cattle blood, after 2 days
Method: Ctenocephalides felis—Oral Test (CTECFE)
(§3) Solvent: dimethyl sulfoxide
To produce a suitable preparation of active compound, 10 mg of active compound are dissolved in 0.5 ml solvent, and the concentrate is diluted with cattle blood to the desired concentration.
Approximately 20 adult unfed cat fleas (Ctenocephalides felis) are placed in flea chambers. The blood chamber, sealed with parafilm on the bottom, are filled with cattle blood supplied with compound solution and placed on the gauze covered top of the flea chamber, so that the fleas are able to suck the blood. The blood chamber is heated to 37° C. whereas the flea chamber is kept at room temperature.
After 2 days mortality in % is determined. 100% means all the fleas have been killed; 0% means none of the fleas have been killed.

Spodoptera frugiperda = Spodoptera frugiperda spray test; conditions: in Zea mays, 168 h, read-out: activity (mortality)
Method: Spodoptera frugiperda—Spray Test
Solvent: 78.0 parts by weight acetone • 1.5 parts by weight dimethylformamide
as §1
as §2, with “solvents” for “solvent,”, “and” for “and the concentrate”
Maize (Zea mays) leaf sections are sprayed with a preparation of the active ingredient of the desired concentration. Once dry, the leaf sections are infested with fall armyworm larvae (Spodoptera frugiperda).
After 7 days mortality in % is determined. 100% means all caterpillars have been killed and 0% means none of the caterpillars have been killed.

Boophilus microplus = Boophilus microplus injection test (BOOPMI Injection); conditions: Rhipicephalus microplus, 168 h, injection into adult engorged female ticks, egg deposition after 7 days, read-out: activity (efficacy, infertile eggs); for pest or weed control at 0.004 mg: 4 μg/animal; for pest or weed control at 0.02 mg: 20 μg/animal
Method: Boophilus microplus—Injection Test (BOOPMI Injection)
as §3
To produce a suitable preparation of active compound, 10 mg of active compound are dissolved in 0.5 mL solvent, and the concentrate is diluted with solvent to the desired concentration.
Five adult engorged female ticks (Boophilus microplus) are injected with 1 μL compound solution into the abdomen. The ticks are transferred into replica plates and incubated in a climate chamber.
After 7 days egg deposition of fertile eggs is monitored. Eggs where fertility is not visible are stored in a climate chamber till hatching after about 42 days. An efficacy of 100% means all eggs are infertile; 0% means all eggs are fertile.

[1] = test system: Rhipicephalus microplus (strain Parkhurst, resistant against synthetic pyrethroids); assay: Rhipicephalus microplus in-vitro contact test, larval cattle tick (BOOPMI Contact); conditions: 5 μg/cm^2 (=500 g/ha), after 48 hours, read-out: activity (efficacy, larvae dead or moribund)
Method: Rhipicephalus microplus—in-Vitro Contact Tests Larval Cattle Tick (Strain Parkhurst, Resistant Against Synthetic Pyrethroids) (BOOPMI Contact)
9 mg compound is solved in 1 ml acetone and diluted with acetone to the desired concentration. 250 μL of the test solution is filled in 25 ml glass test tubes and homogeneously distributed on the inner walls by rotation and tilting on a shaking device (2 h at 30 rpm). With a compound concentration of 900 ppm, an inner surface of 44.7 cm^2 and a homogeneous distribution, a dose of 5 μg/cm^2 is achieved.
After the solvent has evaporated, each test tube is filled with 20-50 cattle tick larvae (Rhipicephalus microplus), closed with a perforated lid and incubated in a horizontal position at 85% relative humidity and 27° C. in an incubator. After 48 hours efficacy is determined. The larvae are patted on the ground of the tubes and negative geotactic behaviour is recorded.
An efficacy of 100% means all larvae are dead or moribund; 0% means no larvae are dead or moribund.

Compound	pest or weed control at 160 µg/disc, 500 g/ha (Diabrotica balteata) [%]	mortality at 100 ppm (Ctenocephalides felis) [%]	mortality at 100 g/ha (Spodoptera frugiperda) [%]	mortality at 500 g/ha (Spodoptera frugiperda) [%]	pest or weed control at 0.004 mg (Boophilus microplus) [%]	pest or weed control at 0.02 mg (Boophilus microplus) [%]	pest or weed control at 5 µg/cm2 [1] [%]	pest or weed control at 100 g/ha (Diabrotica balteata) [%]
C[C@H](Nc1nc2cc(C(F)(F)F)cc(C(F)(F)F)c2o1)c1ncnn1-c1ccc(C#N)cn1 [Example I-026]	100	100	100	100	100	100	100	–
Cc1nc([C@H](C)Nc2nc3cc(C(F)(F)F)cc(C(F)(F)F)c3o2)n(-c2ncccn2)n1 [Example I-012]	–	100	–	100	100	100	–	–
C[C@H](Nc1nc2cc(S(F)(F)(F)(F)F)cc(Cl)c2o1)c1ncnn1-c1ncccn1 [Example I-069, 7-Chlor-5-(pentafluor-lambda^6-sulfanyl)-N-{(1S)-1-[1-(pyrimidin-2-yl)-1H-1,2,4-triazol-5-yl]ethyl}-1,3-benzoxazol-2-amin]	–	100	100	–	100	–	80	100
C[C@H](Nc1nc2cc(C(F)(F)F)cc(Cl)c2o1)c1ncnn1-c1ncc(Br)s1 [Example I-035, N-{(1S)-1-[1-(5-bromo-1,3-thiazol-2-yl)-1H-1,2,4-triazol-5-yl]ethyl}-7-chloro-5-(trifluoromethyl)-1,3-benzoxazol-2-amine]	–	100	–	–	80	–	–	100
C[C@H](Nc1nc2cc(Br)cc(Cl)c2o1)c1ncnn1-c1ncccn1 [Example I-010]	100	100	–	100	–	100	–	80
C[C@H](Nc1nc2cc(C(F)(F)F)cc(Cl)c2o1)c1ncnn1-c1ncc(Br)cn1 [Example I-044, N-{(1S)-1-[1-(5-Brompyrimidin-2-yl)-1H-1,2,4-triazol-5-yl]ethyl}-7-chlor-5-(trifluormethyl)-1,3-benzoxazol-2-amin]	–	100	100	–	100	–	100	100
C[C@H](Nc1nc2cc(C(C)(C)C)cc(Cl)c2o1)c1ncnn1-c1ncccn1 [Example I-075, 5-tert-Butyl-7-chlor-N-{(1S)-1-[1-(pyrimidin-2-yl)-1H-1,2,4-triazol-5-yl]ethyl}-1,3-benzoxazol-2-amin]	–	80	–	–	100	100	–	–
C[C@H](Nc1nc2cc(C(F)(F)F)cc(Cl)c2o1)c1ncnn1-c1cnc(C#N)cn1 [Example I-041, 5-{5-[(1S)-1-{[7-Chlor-5-(trifluormethyl)-1,3-benzoxazol-2-yl]amino}ethyl]-1H-1,2,4-triazol-1-yl}pyrazin-2-carbonitril]	–	90	–	–	–	–	80	100
C[C@H](Nc1nc2cc(C(F)(F)F)c(Cl)cc2o1)c1ncnn1-c1ccc(Cl)cn1 [Example I-033]	–	90	–	100	–	–	100	–
C[C@H](Nc1nc2c(C(F)(F)F)cc(Br)cn2n1)c1ncnn1-c1ncccn1 [Example I-095, 6-bromo-N-{(1S)-1-[1-(pyrimidin-2-yl)-1H-1,2,4-triazol-5-yl]ethyl}-8-(trifluoromethyl)[1,2,4]triazolo[1,5-a]pyridin-2-amine]	–	100	–	–	–	–	80	–
C[C@H](Nc1nc2cc(OC(F)(F)F)cc(Cl)c2o1)c1ncnn1-c1ncc(Br)cn1 [Example I-078, N-{(1S)-1-[1-(5-Brompyrimidin-2-yl)-1H-1,2,4-triazol-5-yl]ethyl}-7-chlor-5-(trifluormethoxy)-1,3-benzoxazol-2-amin]	–	100	–	–	–	–	–	100
C[C@H](Nc1nc2cc(C(F)(F)F)c(Cl)cc2o1)c1ncnn1-c1ncc(C2COC2)cn1 [Example I-056, 6-Chloro-N-[(1S)-1-{1-[5-(oxetan-3-yl)pyrimidin-2-yl]-1H-1,2,4-triazol-5-yl}ethyl]-5-(trifluoromethyl)-1,3-benzoxazol-2-amine]	–	100	–	–	80	100	80	–
C[C@H](Nc1nc2cc(C(F)(F)F)cc(Cl)c2o1)c1ncnn1-c1nccs1 [Example I-050, 7-Chlor-N-{(1S)-1-[1-(1,3-thiazol-2-yl)-1H-1,2,4-triazol-5-yl]ethyl}-5-(trifluormethyl)-1,3-benzoxazol-2-amin]	–	90	–	–	80	80	–	–
C[C@H](Nc1nc2cc(Cl)c(SC3CC3)cc2o1)c1ncnn1-c1ncccn1 [Example I-072, 5-Chlor-6-(cyclopropylsulfanyl)-N-{(1S)-1-[1-(pyrimidin-2-yl)-1H-1,2,4-triazol-5-yl]ethyl}-1,3-benzoxazol-2-amin]	–	100	–	–	–	–	90	–
CSc1cc2oc(N[C@@H](C)c3ncnn3-c3ncccn3)nc2cc1Cl [Example I-076, 5-Chlor-6-(methylsulfanyl)-N-{(1S)-1-[1-(pyrimidin-2-yl)-1H-1,2,4-triazol-5-yl]ethyl}-1,3-benzoxazol-2-amin]	–	100	–	–	100	100	90	–
Cc1nc([C@H](C)Nc2nc3cc(C(F)(F)F)cc(Br)c3o2)n(-c2ncccn2)n1 [Example I-053, 7-Bromo-N-{(1S)-1-[3-methyl-1-(pyrimidin-2-yl)-1H-1,2,4-triazol-5-yl]ethyl}-5-(trifluormethyl)-1,3-benzoxazol-2-amin]	100	100	–	–	100	100	–	–
CCSc1cc2oc(N[C@@H](C)c3ncnn3-c3ncccn3)nc2cc1Cl [Example I-073, 5-Chor-6-(ethylsulfanoyl)-N-{(1S)-1-[1-(pyrimidin-2-yl)-1H-1,2,4-triazol-5-yl]ethyl}-1,3-benzoxazol-2-amin]	–	90	–	–	–	100	100	–
